Values after ≈ are worked out from the molar mass of the structure shown. Values joined by “and” are separate entries in the source; they are usually repeats but may differ in a detail not shown here. Equal entries are not always repeated. Where two headings read alike, the source gives them in different places.
Experiments:
[1] = test system: Streptococcus pyogenes C203; assay: MIC, standard agar-dilution assay, Streptococcus pyogenes C203; type: cell-based
[2] = test system: Staphylococcus aureus V41; assay: MIC, standard agar-dilution assay, Staphylococcus aureus V41; type: cell-based
Pasteurella multocida [3] = assay: Subcutaneous treatment of Pasteurella multocida-infected chicks; type: in vivo, one-day-old chicks; conditions: 30 mg/kg × 2, 1 and 4 hours post-challenge
Description: Many of the C-20 modified derivatives of this invention have also shown in vivo antibacterial activity against infections induced by gram-negative bacteria. Tables XII and XIII summarize the results of tests in which illustrative compounds were evaluated against Pasteurella infection in one-day-old chicks. The compounds were administered parenterally or orally after challenge of the chicks with Pasteurella multocida (0.1 ml of a 10^-4 dilution of a twenty-hour tryptose broth culture of an avian P. multocida given subcutaneously). In these tests, unless indicated otherwise, all non-medicated infected chicks died within 24 hours of Pasteurella challenge. In the tests summarized in Table XII the compounds were administered by subcutaneous injection at a dosage of 30 mg/kg, 1 and 4 hours post-challenge of the chicks with P. multocida. In the test summarized in Table XIII the compounds were administered by gavage at 1 and 5 hours post-challenge of the chicks with P. multocida.

Streptococcus Group 9960 = assay: MIC, standard agar-dilution assay, Streptococcus Group 9960; type: cell-based
[4] = test system: Staphylococcus aureus X1.1; assay: MIC, standard agar-dilution assay, Staphylococcus aureus X1.1; type: cell-based
[5] = test system: Staphylococcus epidermidis EPI1; assay: MIC, standard agar-dilution assay, Staphylococcus epidermidis EPI1; type: cell-based
Mycoplasma gallisepticum [6] = assay: MIC, broth-dilution microtiter test, Mycoplasma gallisepticum; type: cell-based
From the text: (§1) The MIC's in Table X were obtained using conventional broth-dilution microtiter tests.

[7] = test system: Haemophilus influenzae R252; assay: MIC, standard agar-dilution assay, Haemophilus influenzae R252; type: cell-based
[8] = test system: Streptococcus pyogenes C203; assay: In vivo protection of mice experimentally infected with S. pyogenes C203; conditions: mice, doses given 1 and 4 hours post-infection; for ED50: Streptococcus pyogenes
Description: The C-20 modified derivatives of this invention have shown in vivo antimicrobial activity against experimentally-induced infections in laboratory animals. When two doses of test compound were administered to mice experimentally infected with S. pyogenes C203, the activity observed was measured as an ED50 value [effective dose in mg/kg to protect 50% of the test animals: see Warren Wick, et al., J. Bacteriol. 81, 233-235 (1961)].

[9] = test system: Staphylococcus aureus X400; assay: MIC, standard agar-dilution assay, Staphylococcus aureus X400; type: cell-based
[10] = test system: Haemophilus influenzae Holt; assay: MIC, standard agar-dilution assay, Haemophilus influenzae Holt; type: cell-based
Mycoplasma hyorhinis = assay: MIC, broth-dilution microtiter test, Mycoplasma hyorhinis; type: cell-based
From the text: as §1

[11] = test system: Staphylococcus aureus S13E; assay: MIC, standard agar-dilution assay, Staphylococcus aureus S13E; type: cell-based
Staphylococcus aureus = assay: MIC, broth-dilution microtiter test, Staphylococcus aureus; type: cell-based
From the text: as §1

[12] = test system: Pasteurella hemolytica 22C; assay: MIC, broth-dilution microtiter test, Pasteurella hemolytica 22C; type: cell-based; conditions: Pasteurella hemolytica 22C, broth-dilution microtiter
From the text: as §1

Streptococcus bovis 80 = assay: MIC, broth-dilution microtiter test, Streptococcus bovis 80; type: cell-based
From the text: as §1

Mycoplasma gallisepticum [13] = assay: Antimycoplasmal activity in chicks infected with Mycoplasma gallisepticum; type: in vivo, two- to three-day-old chicks; conditions: gavage five times, equivalent to 0.5 g/gal; for Number with Antibodies/Number Tested: antibodies to M. gallisepticum; for Number with Antibodies/Number Tested / Number with Air-Sac Lesions/Number Treated: 21 days post-infection
Description: In these tests infections were induced in chicks by injecting 0.2 ml of a broth culture of M. gallisepticum into the abdominal air sac of two- to three-day-old chicks. The compounds were administered by gavage five times at a dose equivalent to 0.5 g/gal (on the day of challenge once prior to and once following the challenge, two times on the next day and once on the third day). Twenty-one days post-infection, the chicks were weighed, a blood sample was taken, and the chicks were sacrificed. The presence or absence of air-sac lesions was recorded.

[14] = test system: Streptococcus pneumoniae Park I; assay: microbe, parasite or virus in culture; type: cell-based
[15] = test system: Streptococcus Group D X66; assay: MIC, standard agar-dilution assay, Streptococcus Group D X66; type: cell-based
[16] = test system: Staphylococcus epidermidis EPI2; assay: MIC, standard agar-dilution assay, Staphylococcus epidermidis EPI2; type: cell-based; conditions: Staphylococcus epidermidis EPI2; agar dilution; read-out: MIC
[17] = test system: Pasteurella multocida 17E; assay: MIC, broth-dilution microtiter test, Pasteurella multocida 17E; type: cell-based; conditions: Pasteurella multocida 17E; bovine isolate; broth-dilution microtiter; read-out: MIC
From the text: as §1

Mycoplasma hyopneumoniae = assay: MIC, broth-dilution microtiter test, Mycoplasma hyopneumoniae; type: cell-based; conditions: Mesomycoplasma hyopneumoniae; Mycoplasma hyopneumoniae; broth-dilution microtiter; read-out: MIC
From the text: as §1

Pasteurella multocida [18] = assay: Oral (gavage) treatment of Pasteurella multocida-infected chicks; type: in vivo, one-day-old chicks
In short: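 Dosing either by gavage at 1 and 5 h after infection, or subcutaneously at 30 mg/kg at 1 and 4 h after infection. Birds were day-old chicks infected s.c. with 0.1 ml of avian Pasteurella multocida culture (twenty-hour tryptose broth, diluted 10^-4).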

Mycoplasma synoviae = assay: MIC, broth-dilution microtiter test, Mycoplasma synoviae; type: cell-based; conditions: Mycoplasmopsis synoviae
From the text: as §1

[19] = test system: Pasteurella multocida 60A; assay: MIC, broth-dilution microtiter test, Pasteurella multocida 60A; type: cell-based; conditions: Pasteurella multocida 60A; avian isolate; broth-dilution microtiter; read-out: MIC
From the text: as §1

in vivo = conditions: dog, po, 15 mg/kg

In the case of CCC1OC(=O)CC(O)C(C)C(OC2OC(C)C(O)C(N(C)C)C2O)C(CCN=[N+]=[N-])CC(C)C(=O)C=CC(C)=CC1COC1OC(C)C(O)C(OC)C1OC (stereo not shown) [Compound 44, 20-DH-DO-20-Azidodesmycosin], the MIC ([1]; Streptococcus pyogenes C203, agar dilution) was 0.25 µg/mL (≈ 0.313 µM), the MIC ([2]; Staphylococcus aureus V41, penicillin-resistant strain, agar dilution) was 0.12 µg/mL (≈ 0.15 µM) and the “Number of Deaths/Number Treated” value (Pasteurella multocida [3]) was 9/10. For the same molecule, the MIC (Streptococcus Group 9960; Streptococcus Group 9960, agar dilution) was 8 µg/mL (≈ 10 µM), the MIC ([4]; Staphylococcus aureus X1.1, agar dilution) was 0.12 µg/mL (≈ 0.15 µM) and the MIC ([5]; Staphylococcus epidermidis EPI1, agar dilution) was 0.12 µg/mL (≈ 0.15 µM). For the same molecule, the MIC (Mycoplasma gallisepticum [6]; Mycoplasma gallisepticum, broth-dilution microtiter) was 0.39 µg/mL (≈ 0.488 µM), the MIC ([7]; Haemophilus influenzae R252, ampicillin-resistant strain, agar dilution) was 4 µg/mL (≈ 5.01 µM) and the “ED50, Oral” value ([8]; oral) was 13 mg/kg × 2. For the same molecule, the “ED50, Subcutaneous” value ([8]; subcutaneous) was 3.8 mg/kg × 2, the MIC ([9]; Staphylococcus aureus X400, methicillin-resistant strain, agar dilution) was 0.25 µg/mL (≈ 0.313 µM) and the MIC ([10]; Haemophilus influenzae Holt, ampicillin-sensitive strain, agar dilution) was 16 µg/mL (≈ 20 µM). The MIC (Mycoplasma hyorhinis; Mycoplasma hyorhinis, broth-dilution microtiter) was 50 µg/mL (≈ 62.6 µM), the MIC ([11]; Staphylococcus aureus S13E, agar dilution) was 0.12 µg/mL (≈ 0.15 µM) and the MIC (Staphylococcus aureus; broth-dilution microtiter) was 0.39 µg/mL (≈ 0.488 µM). For the same molecule, the MIC [12] was 12.5 µg/mL (≈ 15.6 µM), the MIC (Streptococcus bovis 80; Streptococcus bovis 80, broth-dilution microtiter) was 6.25 µg/mL (≈ 7.82 µM) and the “Number with Antibodies/Number Tested” value (Mycoplasma gallisepticum [13]) was 9/10. The Mortality (Mycoplasma gallisepticum [13]) was 0/10, the “Number with Air-Sac Lesions/Number Treated” value (Mycoplasma gallisepticum [13]) was 7/10 and the MIC ([14]; Streptococcus pneumoniae Park I, agar dilution) was 2 µg/mL (≈ 2.5 µM). For the same molecule, the MIC ([15]; Streptococcus Group D X66, agar dilution) was 4 µg/mL (≈ 5.01 µM).

For CCC1OC(=O)CC(O)C(C)C(OC2OC(C)C(O)C(N(C)C)C2O)C(CC2Nc3ccccc3S2)CC(C)C(=O)C=CC(C)=CC1COC1OC(C)C(O)C(OC)C1OC (stereo not shown) [Compound 75], the MIC ([1]; Streptococcus pyogenes, C203) was 0.5 µg/mL (≈ 0.569 µM), the MIC ([2]; Staphylococcus aureus, V41) was 0.25 µg/mL (≈ 0.284 µM) and the “Number of Deaths/Number Treated” value (Pasteurella multocida [3]) was 4/10. The MIC (Streptococcus Group 9960; GROUP9960) was 2 µg/mL (≈ 2.27 µM), the MIC ([4]; Staphylococcus aureus, X1.1) was 0.25 µg/mL (≈ 0.284 µM) and the MIC ([5]; Staphylococcus epidermidis, EPI1) was 0.25 µg/mL (≈ 0.284 µM). The MIC (Mycoplasma gallisepticum [6]; Mycoplasmoides gallisepticum) was 1.56 µg/mL (≈ 1.77 µM), the MIC [16] was 0.12 µg/mL (≈ 0.136 µM) and the MIC ([7]; Haemophilus influenzae, R252) was 16 µg/mL (≈ 18.2 µM). It also gave an MIC [17] of 25 µg/mL (≈ 28.4 µM), an ED50 ([8]; C203, sc, subcutaneous, read-out: ED50, Subcutaneous) of 1.7 mg/kg and an ED50 ([8]; C203, oral, read-out: ED50, Oral) of 30 mg/kg. For the same molecule, the MIC ([9]; Staphylococcus aureus, X400) was 0.5 µg/mL (≈ 0.569 µM), the MIC (Mycoplasma hyopneumoniae) was 0.19 µg/mL (≈ 0.216 µM) and the MIC ([10]; Haemophilus influenzae) was 16 µg/mL (≈ 18.2 µM). For the same molecule, the MIC (Mycoplasma hyorhinis; Mycoplasma) was 50 µg/mL (≈ 56.9 µM), the “Number of Deaths/Number tested” value (Pasteurella multocida [18]; 1.0 g/gal equivalent) was 6/9 and the “Number of Deaths/Number tested” value (Pasteurella multocida [18]; 2.0 g/gal equivalent) was 3/9 and 4/10. For the same molecule, the MIC ([11]; Staphylococcus aureus, S13E) was 0.25 µg/mL (≈ 0.284 µM), the MIC (Staphylococcus aureus) was 0.78 µg/mL (≈ 0.887 µM) and the MIC ([12]; read-out: MIC) was 25 µg/mL (≈ 28.4 µM). It also gave an MIC (Mycoplasma synoviae) of 1.56 µg/mL (≈ 1.77 µM), an MIC (Streptococcus bovis 80; Streptococcus equinus, 80) of 3.12 µg/mL (≈ 3.55 µM) and an MIC [19] of 25 µg/mL (≈ 28.4 µM). For the same molecule, the “Number with Antibodies/Number Tested” value (Mycoplasma gallisepticum [13]) was 9/9, the Mortality (Mycoplasma gallisepticum [13]) was 1/10 and the “Number with Air-Sac Lesions/Number Treated” value (Mycoplasma gallisepticum [13]) was 3/10. For the same molecule, the MIC ([14]; Streptococcus pneumoniae) was 0.25 µg/mL (≈ 0.284 µM) and the MIC [15] was 2 µg/mL (≈ 2.27 µM).

In the case of CCC1OC(=O)CC(O)C(C)C(OC2OC(C)C(O)C(N(C)C)C2O)C(CC=O)CC(C)C(=O)C=CC(C)=CC1COC1OC(C)C(O)C(OC)C1OC (stereo not shown) [desmycosin], the Cmax (in vivo) was 500 ng/mL.
